Measured values reported in patent publication US20160038505A1, “METHODS AND COMPOSITIONS FOR TREATING IMPULSE CONTROL DISORDER, ANXIETY-RELATED DISORDERS, VIOLENCE AND/OR ANGER, OR REGULATING FOOD INTAKE” (priority 2014, published 2016).
“Also recorded” adds a separate entry of the source.

Assays:
[1] = Human pharmacokinetic study, single oral tablet, fasting healthy volunteers (serum); assay type: in vivo; details: fasting, serum
Method: In double blind studies, fasting healthy volunteers (6 per cohort) were treated once orally with a tablet of noribogaine HCl. In escalating cohorts, the volunteers received 3 mg, 10 mg, 30 mg or 60 mg noribogaine.

[2] = Plasma toxicokinetics in dogs, 14 day repeat dose study; assay type: in vivo, dog
Method: Noribogaine HCl was administered to groups of 4 male and 4 female dogs by single oral gavage daily for 14 days at doses of 0, 0.5, 1.0 and 5.0 mg/kg/day. An additional group of 4 male and 4 female dogs received either the vehicle control or 5.0 mg/kg/day for 14 days and were held for an additional 28 days after cessation of dosing to assess recovery from any potential drug-induced changes. The study was conducted under GLP guidelines and included comprehensive examinations of clinical signs, body weight, clinical pathology parameters, ophthalmologic examinations, ECG recordings and analyses of plasma for bioanalytical measurement of drug levels at appropriate intervals during the study. At the termination of the dosing phase and at the termination of the recovery phase, all dogs were subjected to a complete post-mortem examination including gross examination of major organs and histologic examination of an extensive list of tissues. Additional sections of brain were obtained from cerebrum, cerebellus, brain stem and spinal cord and examined histologically to evaluate potential effects on brain histopathology. In addition, these sections were examined with immunohistochemical stains for GFAP for evidence of gliosis and Calbindin for a more comprehensive examination of cerebellar Purkinje cells.

dogs = assay: Single dose (acute oral) toxicity/TK study in dogs; assay type: in vivo, dog
[3] = test system: healthy, drug-free male volunteers; assay: Safety and tolerability of noribogaine in healthy humans; assay type: in vivo, human
Method: Safety and tolerability of noribogaine were tested in the group of volunteers from Example 9. […] Safety evaluations included clinical monitoring, recording of adverse events (AEs), safety laboratory tests, vital signs, ECG telemetry from −2 h to 6 h after dosing, and 12-lead electrocardiograms (ECGs) up to 216 hours post-dosing.

[4] = dog, plasma, po, female dogs, 5.0 mg/kg, D 14

CC[C@H]1CC2C[C@H]3c4[nH]c5ccc(O)cc5c4CCN(C2)C13 [noribogaine]
mean AUC/24 hr ([1]; single dose of 3 mg): 3.1 ng/mL | time after administration at which mean Cmax was observed ([1]; single dose of 3 mg): 1.9 h | mean AUC/24 hr ([1]; single dose of 10 mg): 10.6 ng/mL | time after administration at which mean Cmax was observed ([1]; single dose of 10 mg): 2.9 h | mean AUC/24 ([1]; single dose of 30 mg): 29.2 ng/mL | time after administration at which mean Cmax was observed ([1]; single dose of 30 mg): 1.75 h | mean AUC/24 ([1]; single dose of 60 mg): 61 ng/mL | time after administration at which mean Cmax was observed ([1]; single dose of 60 mg): 1.75 h | Cmax at 1 day of dosing ([2]; dog, plasma, po, female dogs, 0.5 mg/kg, D 1): 25.3 ng/mL | Cmax at 14 day of dosing ([2]; dog, plasma, po, female dogs, 0.5 mg/kg, D 14): 29.8 ng/mL | Cmax at 1 day of dosing ([2]; dog, plasma, po, female dogs, 1.0 mg/kg, D 1): 68.5 ng/mL | Cmax at 14 day of dosing ([2]; dog, plasma, po, female dogs, 1.0 mg/kg, D 14): 74.1 ng/mL | Cmax at 1 day of dosing ([2]; dog, plasma, po, female dogs, 5.0 mg/kg, D 1): 691 ng/mL | Cmax at 14 day of dosing [2, 4]: 683 ng/mL | Tmax at 14 day of dosing [2, 4]: 0.6 h | AUC0-24 h ([2]; female dogs, 0.5 mg/kg, D 1): 40.4 ng·h/mL | AUC0-last ([2]; female dogs, 0.5 mg/kg, D 1): 31.5 ng·h/mL | AUC0-∞ ([2]; female dogs, 0.5 mg/kg, D 1): 44.9 ng·h/mL | T1/2 ([2]; female dogs, 0.5 mg/kg, D 1): 1.0 h | Tmax ([2]; female dogs, 0.5 mg/kg, D 1): 0.5 h | AUC0-24 h ([2]; female dogs, 0.5 mg/kg, D 14): 55.0 ng·h/mL | AUC0-last ([2]; female dogs, 0.5 mg/kg, D 14): 35.4 ng·h/mL | AUC0-∞ ([2]; female dogs, 0.5 mg/kg, D 14): 45.7 ng·h/mL | T1/2 ([2]; female dogs, 0.5 mg/kg, D 14): 1.1 h | Tmax ([2]; female dogs, 0.5 mg/kg, D 14): 1.0 h | AUC0-24 h ([2]; female dogs, 1.0 mg/kg, D 1): 176.2 ng·h/mL | AUC0-last ([2]; female dogs, 1.0 mg/kg, D 1): 148.9 ng·h/mL | AUC0-∞ ([2]; female dogs, 1.0 mg/kg, D 1): 165.3 ng·h/mL | T1/2 ([2]; female dogs, 1.0 mg/kg, D 1): 1.4 h | Tmax ([2]; female dogs, 1.0 mg/kg, D 1): 0.8 h | AUC0-24 h ([2]; female dogs, 1.0 mg/kg, D 14): 203.7 ng·h/mL | AUC0-last ([2]; female dogs, 1.0 mg/kg, D 14): 169.0 ng·h/mL | AUC0-∞ ([2]; female dogs, 1.0 mg/kg, D 14): 197.0 ng·h/mL | T1/2 ([2]; female dogs, 1.0 mg/kg, D 14): 1.6 h | Tmax ([2]; female dogs, 1.0 mg/kg, D 14): 0.5 h | AUC0-24 h ([2]; female dogs, 5.0 mg/kg, D 1): 3367.9 ng·h/mL | AUC0-last ([2]; female dogs, 5.0 mg/kg, D 1): 3367.9 ng·h/mL | AUC0-∞ ([2]; female dogs, 5.0 mg/kg, D 1): 3425.7 ng·h/mL | T1/2 ([2]; female dogs, 5.0 mg/kg, D 1): 4.3 h | AUC0-24 h ([2]; female dogs, 5.0 mg/kg, D 14): 5951.2 ng·h/mL | AUC0-last ([2]; female dogs, 5.0 mg/kg, D 14): 5951.2 ng·h/mL | AUC0-∞ ([2]; female dogs, 5.0 mg/kg, D 14): 6283.2 ng·h/mL | T1/2 ([2]; female dogs, 5.0 mg/kg, D 14): 5.7 h | AUC0-24 h ([2]; male dogs, 0.5 mg/kg, D 1): 59.7 ng·h/mL | AUC0-last ([2]; male dogs, 0.5 mg/kg, D 1): 46.6 ng·h/mL | AUC0-∞ ([2]; male dogs, 0.5 mg/kg, D 1): 67.8 ng·h/mL | Cmax ([2]; male dogs, 0.5 mg/kg, D 1): 28.8 ng/mL | T1/2 ([2]; male dogs, 0.5 mg/kg, D 1): 1.3 h | Tmax ([2]; male dogs, 0.5 mg/kg, D 1): 0.7 h | AUC0-24 h ([2]; male dogs, 0.5 mg/kg, D 14): 64.5 ng·h/mL | AUC0-last ([2]; male dogs, 0.5 mg/kg, D 14): 53.2 ng·h/mL | AUC0-∞ ([2]; male dogs, 0.5 mg/kg, D 14): 68.2 ng·h/mL | Cmax ([2]; male dogs, 0.5 mg/kg, D 14): 29.4 ng/mL | T1/2 ([2]; male dogs, 0.5 mg/kg, D 14): 1.3 h | Tmax ([2]; male dogs, 0.5 mg/kg, D 14): 0.7 h | AUC0-24 h ([2]; male dogs, 1.0 mg/kg, D 1): 119.8 ng·h/mL | AUC0-last ([2]; male dogs, 1.0 mg/kg, D 1): 102.5 ng·h/mL | AUC0-∞ ([2]; male dogs, 1.0 mg/kg, D 1): 120.8 ng·h/mL | Cmax ([2]; male dogs, 1.0 mg/kg, D 1): 58.6 ng/mL | T1/2 ([2]; male dogs, 1.0 mg/kg, D 1): 1.2 h | Tmax ([2]; male dogs, 1.0 mg/kg, D 1): 0.9 h | AUC0-24 h ([2]; male dogs, 1.0 mg/kg, D 14): 210.4 ng·h/mL | AUC0-last ([2]; male dogs, 1.0 mg/kg, D 14): 172.3 ng·h/mL | AUC0-∞ ([2]; male dogs, 1.0 mg/kg, D 14): 195.7 ng·h/mL | Cmax ([2]; male dogs, 1.0 mg/kg, D 14): 67.6 ng/mL | T1/2 ([2]; male dogs, 1.0 mg/kg, D 14): 1.8 h | Tmax ([2]; male dogs, 1.0 mg/kg, D 14): 0.8 h | AUC0-24 h ([2]; male dogs, 5.0 mg/kg, D 1): 3515.0 ng·h/mL | AUC0-last ([2]; male dogs, 5.0 mg/kg, D 1): 3515.0 ng·h/mL | AUC0-∞ ([2]; male dogs, 5.0 mg/kg, D 1): 3630.5 ng·h/mL | Cmax ([2]; male dogs, 5.0 mg/kg, D 1): 693 ng/mL | T1/2 ([2]; male dogs, 5.0 mg/kg, D 1): 4.7 h | AUC0-24 h ([2]; male dogs, 5.0 mg/kg, D 14): 6403.3 ng·h/mL | AUC0-last ([2]; male dogs, 5.0 mg/kg, D 14): 6403.3 ng·h/mL | AUC0-∞ ([2]; male dogs, 5.0 mg/kg, D 14): 6961.4 ng·h/mL | Cmax ([2]; male dogs, 5.0 mg/kg, D 14): 716 ng/mL | T1/2 ([2]; male dogs, 5.0 mg/kg, D 14): 6.5 h | Tmax ([2]; male dogs, 5.0 mg/kg, D 14): 0.9 h | findings at NOAEL dose (dogs; 5 mg/kg): only transient reduction in food consumption in one dog | clinical signs (dogs; 10 mg/kg, from 20 minutes until 3 h 40 m post-dose): Convulsions and other CNS-related clinical signs | mortality (dogs; 5 (n=2) or 10 (n=2) mg/kg oral): no mortality occurred | adverse events, Mild ([3]; 3 mg): Dizziness; also recorded: Epistaxis; also recorded: Headache; also recorded: Back pain | adverse events, Moderate ([3]; 3 mg): Headache | number of adverse events reported ([3]; 3 mg dose group): five adverse events were reported by two subjects | adverse events, Mild ([3]; 10 mg): Headache | number of adverse events reported ([3]; 10 mg dose group, single subject): one adverse event | adverse events, Mild ([3]; 30 mg): Headache | number of adverse events reported ([3]; 30 mg dose group, single subject): one adverse event | oximetry, capnography, respiratory rate ([3]; 3-60 mg): no changes in oximetry or capnography, or changes in respiratory rate | vital signs and safety laboratory tests ([3]; 3-60 mg): no changes in vital signs or safety laboratory tests of note | QTcF values ([3]; 3-60 mg, at any time): ≤ 500 ms | single increase in QTcF ([3]; one subject dosed with 10 mg, 24 hours post-dosing): > 60 ms
